Experimental data as given in the SangsterLogP compilation.

Experiment: method code SF-HPLC, from DOI: 10.1081/jlc-100101463
Settings: pH 12.0

Compound	logD
NC1=NCC(CN2CCC(C(=O)c3ccccc3)CC2)O1 (stereo not drawn)	1.05
Cc1cc(C)cc(OCC2CN=C(N)O2)c1 (stereo not drawn)	2.24
CC(=O)c1cccc(OCC2CN=C(N)O2)c1 (stereo not drawn)	1.31
CC(C)N(CC1CN=C(N)O1)C(C)C (stereo not drawn)	0.98
CC(C)(C)c1ccc(OCC2CN=C(N)O2)cc1 (stereo not drawn)	2.87
NC1=NCC(CN2CCC(Cc3ccccc3)CC2)O1 (stereo not drawn)	2.38
NC1=NCC(CN2CCC(c3ccccc3)CC2)O1 (stereo not drawn)	1.96

Continued, values first:

logD	Compound
0.73	CC1CCCCN1CC1CN=C(N)O1 (stereo not drawn)
0.91	CC1CCN(CC2CN=C(N)O2)CC1 (stereo not drawn)
0.19	NC1=NCC(CN2CC=CCC2)O1 (stereo not drawn)
0.94	CC1CCCC(C)N1CC1CN=C(N)O1 (stereo not drawn)
0.16	CC1CN(CC2CN=C(N)O2)CC(C)O1 (stereo not drawn)
-0.22	NC1=NCC(CN2CCOCC2)O1 (stereo not drawn)
